# From patent publication US7795257B2, “Organic compounds” (Novartis AG, priority 2005, dated 2010)
# pEC50: −log10 of the molar value. Counter-ions that a name gives are not always drawn.
# Target: T1, recombinant GST-GK (Homo sapiens, UniProt P35557)
# T1 sequence (P35557 1-465): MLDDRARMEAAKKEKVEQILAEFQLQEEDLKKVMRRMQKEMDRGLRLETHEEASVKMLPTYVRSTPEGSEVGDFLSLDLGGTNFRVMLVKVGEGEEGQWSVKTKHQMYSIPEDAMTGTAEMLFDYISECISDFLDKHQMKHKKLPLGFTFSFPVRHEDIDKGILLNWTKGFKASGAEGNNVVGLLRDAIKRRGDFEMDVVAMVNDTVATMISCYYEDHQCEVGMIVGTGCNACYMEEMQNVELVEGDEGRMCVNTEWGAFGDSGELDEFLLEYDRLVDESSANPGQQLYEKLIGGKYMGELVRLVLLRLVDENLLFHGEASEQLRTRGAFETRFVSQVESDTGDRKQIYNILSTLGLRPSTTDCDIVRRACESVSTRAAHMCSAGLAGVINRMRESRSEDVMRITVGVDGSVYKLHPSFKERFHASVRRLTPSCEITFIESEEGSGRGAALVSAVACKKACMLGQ
# Test: primary enzyme assay: glucokinase activation in vitro (thio-NADH coupled assay)
# Assay type: biochemical
# Conditions: concentration of compound that produces a 50% increase in the activity of GK vs DMSO control; 10 mM glucose, 25° C.
# Text: For example, the glucokinase activation in vitro may be determined by measuring the activation of recombinant GST-GK by a compound of the present invention in the absence or the presence of GKRP, a 68,000 Da protein inhibitor of GK. In these assays, formation of glucose-6-phosphate is coupled directly to the formation of thio-NADH. GST-GK catalyzes the reaction of glucose and Mg-ATP to produce glucose-6-phosphate and ADP. Glucose-6-phosphate dehydrogenase (G6PDH) reduces thionicotinamide (thio-NAD) to thio-NADH. The assay measures the formation of thio-NADH at […].
# The basic GK assay components are as follows: 25 mM HEPES (pH 7.1), 25 mM KCl, 2.5 mM MgCl2, 1 mM ATP (Sigma A-5394), 1 mM DTT, 1 mM thio-NAD (Sigma T-7375), 80 units/mL G6PDH (Sigma G-5885), 10 mM glucose and 110 nM GST-GK. For assessing reversal of GK inhibition by GKRP, 20 μM Fructose-6-phosphate (F-6-P) and 370 nM recombinant GKRP are added to these assay components. Fructose-1-phosphate (F-1-P) at 1 μM is used as a control in the GK/GKRP assay. F-1-P reverses inhibition of GST-GK by GKRP.
# The assay is done in standard, 96-well, round-bottom plates (Corning) and the total assay volume is 25 μL. Test compounds are serially diluted into 100% DMSO and 0.5 μL of diluted compound in 100% DMSO is added to the assay plate. Assay reagents (24.5 μL) are added using a Zymark robotic platform. Buffer, containing HEPES, MgCl2, KCl, thio-NAD, G6PDH, glucose and GST-GK, are added (5 μL) using the Zymark 8-channel hand pipet. For the GK/GKRP assay, GKRP and F-6-P are also included. The reaction is then initiated by adding 19.5 μL of buffer containing HEPES, MgCl2, KCl, DTT and ATP using the Zymark Reagent Addition Station/Reagent Addition Module. The plates are read kinetically over 10 min at 25° C. using a SpectraMax Plus microplate spectrophotometer (Molecular Devices, Sunnyvale, Calif.) to monitor the increase in optical density at 405 nm. The GK activity in wells containing test compounds is compared with activity in DMSO control wells. The concentration of compound that produces a 50% increase in the activity of GK is calculated and expressed as EC50.
row,pEC50,SMILES
1,5.85,"CN1CCN(S(=O)(=O)c2ccc(C(CC3CCCC3)C(=O)Nc3ccc(C(=O)O)cn3)cc2)CC1 (stereo not shown) [Example 4-23, 6-{3-Cyclopentyl-2-[4-(4-methyl-piperazine-1-sulfonyl)-phenyl]-propionylamino}-nicotinic acid]"
2,6.59,"CN1CCN(S(=O)(=O)c2ccc(C(CC3CCCC3)C(=O)Nc3nc4ccc(-c5ccccc5)nc4s3)cc2)CC1 (stereo not shown) [Example 4-44, 3-Cyclopentyl-2-[4-(4-methyl-piperazine-1-sulfonyl)-phenyl]-N-(5-phenyl-thiazolo[5,4-b]pyridin-2-yl)-propionamide]"
3,5.68,"COCCN(C)C(=O)c1ccc2nc(NC(=O)[C@H](CC3CCCC3)c3ccc(S(=O)(=O)N4CCN(C)CC4)cc3)sc2n1 [Example 4-52, 2-{(R)-3-Cyclopentyl-2-[4-(4-methyl-piperazine-1-sulfonyl)-phenyl]-propionylamino}-thiazolo[5,4-b]pyridine-5-carboxylic acid (2-methoxy-ethyl)-methyl-amide]"
4,5.03,"COc1ccc2nc(NC(=O)C(CC3CCCC3)c3ccc(S(=O)(=O)N4CCNCC4C(=O)O)cc3)sc2n1 (stereo not shown) [Example 4-94, 1-{4-[2-Cyclopentyl-1-(5-methoxy-thiazolo[5,4-b]pyridin-2-ylcarbamoyl)-ethyl]-benzenesulfonyl}-piperazine-2-carboxylic acid]"

# Continued, molecule first:
row,SMILES,pEC50
1,"CN1CCN(S(=O)(=O)c2ccc(C(CC3CCCC3)C(=O)Nc3nccc4ccccc34)cc2)CC1 (stereo not shown) [Example 1, 3-Cyclopentyl-N-isoquinolin-1-yl-2-[4-(4-methyl-piperazine-1-sulfonyl)-phenyl]-propionamide hydrochloride]",4.30
2,"COc1ccc2nc(NC(=O)C(CC3CCCC3)c3ccc(S(=O)(=O)N4CCC(C(=O)O)CC4)cc3)sc2n1 (stereo not shown) [Example 3, 1-{4-[2-Cyclopentyl-1-(5-methoxy-thiazolo[5,4-b]pyridin-2-ylcarbamoyl)-ethyl]-benzenesulfonyl}-piperidine-4-carboxylic acid]",5.15
3,"CN1CCN(S(=O)(=O)c2ccc(C(CC3CCCC3)C(=O)Nc3nccc4ccccc34)cc2)CC1 (stereo not shown) [Example 4-1, 3-Cyclopentyl-N-isoquinolin-1-yl-2-[4-(4-methyl-piperazine-1-sulfonyl)-phenyl]-propionamide]",5.96
4,"CCN(CC)S(=O)(=O)c1ccc(C(CC2CCCC2)C(=O)Nc2nc3c(s2)CN(C(=O)OC(C)(C)C)CC3)cc1 (stereo not shown) [Example 4-8, 2-[3-Cyclopentyl-2-(4-diethylsulfamoyl-phenyl)-propionylamino]-6,7-dihydro-4H-thiazolo[5,4-c]pyridine-5-carboxylic acid tert-butyl ester]",7.02
5,"CCN(CC)S(=O)(=O)c1ccc(C(CC2CCCC2)C(=O)Nc2nccs2)cc1 (stereo not shown) [Example 4-15, 3-Cyclopentyl-2-(4-diethylsulfamoyl-phenyl)-N-thiazol-2-yl-propionamide]",7.22
6,"CN1CCN(S(=O)(=O)c2ccc(C(CC3CCCC3)C(=O)Nc3nc4ccc(Br)nc4s3)cc2)CC1 (stereo not shown) [Example 4-22, N-(5-Bromo-thiazolo[5,4-b]pyridin-2-yl)-3-cyclopentyl-2-[4-(4-methyl-piperazine-1-sulfonyl)-phenyl]-propionamide]",6.41
